Measurements from patent EP0486595B1, “Use of a coleus extract for skin pigmentation” (LVMH RECHERCHE, priority 1989, dated 1991).

Key:
mélanocytes murins [1] = assay: Melanin formation (melanogenesis stimulation) in cultured melanocytes, optical density at 475 nm; format: cell-based; conditions: for Mélanine >g pour 10⁶ mélanocytes / A: concentration 10 >g/ml; for A: relative to β-MSH 2.10⁻⁸ M
From the text: (§1) Des mélanocytes murins sont cultivés sur un milieu approprié de manière classique.
Au jour J = 0, le produit à tester est introduit dans le milieu de culture. […]
(§2) On procède à la lecture de la densité optique sur un spectrophotomètre à 475 nm, ce qui permet d'évaluer la quantité de mélanine formée par comparaison à la densité optique d'une solution de mélanine de concentration connue.
(§3) On procède également au comptage des cellules, et on calcule le taux de mélanine formée par cellule, par rapport à une culture témoin, sans addition de produit à tester.
(§4) L'extrait Coleus 5B, selon l'exemple 5b est testé en comparaison avec de la forskoline seule, utilisée à concentration équivalente, et avec un témoin positif consistant en 10⁻⁸ mole de β-MSH. Ainsi, on introduit au jour J=0 dans le milieu de culture de la forskoline à la concentration de 0,1 >g/ml.
(§5) Dans une autre culture, on introduit l'extrait de Coleus à une concentration déterminée de façon que le taux en forskoline soit également d'environ 0,1 >g/ml.
(§6) L'activité A de la stimulation de la mélanogénèse par les produits selon l'invention est calculée par la formule suivante : [formula] dans laquelle les grandeurs q représentent les quantités de mélanine formée qp = culture recevant le produit à tester q₊ = culture recevant la βMSH qo = culture témoin ne recevant aucun produit.
(§7) Par ailleurs, on a testé dans des conditions analogues les extraits de Coleus 5A et 5C respectivement obtenus par extraction par un mélange éthanol-eau 80:20 et par le dichlorométhane. On notera toutefois qu'il a été pris comme témoin positif une culture recevant de la β-MSH à la concentration de 2.10⁻⁸M.
(§8) On opère comme à l'exemple 6. La combinaison IBMX plus extrait de Coleus est testée en comparaison avec l'IBMX et l'extrait de Coleus seul, de même qu'avec la β-MSH à la concentration de 2.10⁻⁸ M prise comme témoin positif.

mélanocytes murins [2] = assay: as above; format: cell-based; conditions: for Activité A en % / A: 100 by definition; for Mélanine >g pour 10⁶ mélanocytes / A: β-MSH 2.10⁻⁸ M
From the text: as §1
Au jour J = 0, le produit à tester est introduit dans le milieu de culture.
Au jour J = 5, on prélève les cellules que l'on isole par centrifugation et on récupère le culot cellulaire que l'on dissout dans de la soude 0,5 N.
as §2, §3, §4, §5, §6, §7, §8

For `C=C[C@@]1(C)CC(=O)[C@]2(O)[C@@]3(C)[C@@H](O)CCC(C)(C)[C@@H]3[C@H](O)[C@H](OC(C)=O)[C@@]2(C)O1` [Forskoline, forskoline], the “Mélanine formée en >g pour 10⁶ cellules” value (mélanocytes murins [1]; J = 5, forskoline 0,1 >g/ml, extract dosed to a forskoline level of about 0,1 >g/ml) was 92 ± 3 >g pour 10⁶ cellules and the “Activité A en %” value (mélanocytes murins [1]; J = 5, forskoline level about 0,1 >g/ml, relative to β-MSH 10⁻⁸ mole = 100) was 151%.
In the case of β-MSH, the “Activité A en %” value (mélanocytes murins [2]; 2.10⁻⁸M) was 100%, the “Mélanine formée en >g pour 10⁶ cellules” value (mélanocytes murins [2]; 2.10⁻⁸M, Table II positive control) was 179 ± 4 >g pour 10⁶ cellules and the “Mélanine >g pour 10⁶ mélanocytes” value (mélanocytes murins [2]; J = 4) was 119 +/-7 >g pour 10⁶ mélanocytes. The A (mélanocytes murins [2]; J = 4) was “+ 100”, the “Activité A en %” value (mélanocytes murins [2]; J = 5, 10⁻⁸ mole de β-MSH) was 100% and the “Mélanine formée en >g pour 10⁶ cellules” value (mélanocytes murins [2]; J = 5, positive control 10⁻⁸ mole de β-MSH) was 70 >g pour 10⁶ cellules. For the same molecule, the “Mélanine >g pour 10⁶ mélanocytes” value (mélanocytes murins [2]; J = 5) was 200 +/-2 >g pour 10⁶ mélanocytes and the A (mélanocytes murins [2]; J = 5) was “+ 100”.
`CC(C)Cn1c(=O)n(C)c(=O)c2[nH]cnc21` [IBMX, 3-isobutyl-1-méthylxanthine] was tested, and the “Mélanine >g pour 10⁶ mélanocytes” value (mélanocytes murins [1]; J = 4) was 64 +/-0 >g pour 10⁶ mélanocytes, the A (mélanocytes murins [1]; J = 4) was “+ 39” and the “Mélanine >g pour 10⁶ mélanocytes” value (mélanocytes murins [1]; J = 5) was 103 +/-2 >g pour 10⁶ mélanocytes. For the same molecule, the A (mélanocytes murins [1]; J = 5) was “+ 35”.
